# In ChEMBL document CHEMBL1133616, “Synthesis and structure-activity relationships of a new set of 2-arylpyrazolo[3,4-c]quinoline derivatives as adenosine receptor antagonists” (J Med Chem, 2000):
# pKi: −log10 of the molar value.
# Key:
# [1] = target: T1, Adenosine receptor A3 (Homo sapiens, UniProt P0DMS8); assay: Displacement of specific [125I]AB-MECA binding at human adenosine A3 receptor expressed in CHO cells; assay type: cell-based
# T1 sequence (P0DMS8 whole entry): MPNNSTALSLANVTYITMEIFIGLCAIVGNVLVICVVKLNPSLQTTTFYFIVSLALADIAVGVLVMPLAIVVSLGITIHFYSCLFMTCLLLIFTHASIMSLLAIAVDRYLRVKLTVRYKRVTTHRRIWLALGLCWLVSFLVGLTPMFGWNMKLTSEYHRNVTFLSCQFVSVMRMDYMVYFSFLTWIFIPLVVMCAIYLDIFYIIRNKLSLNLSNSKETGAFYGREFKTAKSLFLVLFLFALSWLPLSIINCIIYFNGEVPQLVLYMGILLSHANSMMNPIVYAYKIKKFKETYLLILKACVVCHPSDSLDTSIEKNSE
# [2] = target: T2, Adenosine receptor A1 (Bos taurus, UniProt P28190); assay: Displacement of specific [3H]CHA binding at adenosine A1 receptor in bovine brain membranes; assay type: cell membranes
# T2 sequence (P28190 whole entry): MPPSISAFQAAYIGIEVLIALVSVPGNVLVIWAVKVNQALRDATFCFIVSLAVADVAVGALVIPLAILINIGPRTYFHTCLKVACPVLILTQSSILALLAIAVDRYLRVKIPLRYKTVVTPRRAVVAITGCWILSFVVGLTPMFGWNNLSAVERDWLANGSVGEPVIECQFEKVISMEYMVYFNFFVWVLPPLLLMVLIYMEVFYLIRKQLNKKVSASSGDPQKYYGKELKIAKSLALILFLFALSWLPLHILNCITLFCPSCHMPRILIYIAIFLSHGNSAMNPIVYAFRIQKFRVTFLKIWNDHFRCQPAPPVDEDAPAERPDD
# [3] = test system: Adenosine receptor A2a (Bos taurus); assay: Inhibition of specific [3H]-CGS- 21680 binding at Adenosine A2A receptor in bovine striatal membranes at 20 uM.; settings: Striatum, Membrane
# [4] = target: Adenosine receptor A2a (Bos taurus); assay: Displacement of specific [3H]-CGS- 21680 binding at Adenosine A2A receptor in bovine striatal membranes.
# [5] = target: T3, Adenosine receptor A1 (Bos taurus) (UniProt P28190); assay: Inhibition of [3H]CHA binding at Adenosine A1 receptor in bovine brain membranes at 20 uM; assay type: cell membranes
# T3 sequence (whole entry): T2 sequence (P28190 whole entry)
# [6] = target: T4, Adenosine receptor A3 (Homo sapiens) (UniProt P0DMS8); assay: Inhibition of [125I]AB-MECA binding to human Adenosine A3 receptor expressed in CHO cells at 1 uM; assay type: cell-based
# T4 sequence (whole entry): T1 sequence (P0DMS8 whole entry)
Compound,pKi [1],pKi [2],inhibition [3],pKi [4],inhibition [5],inhibition [6]
Cc1ccccc1-n1cc2c(n1)c(NC1CCCC1)nc1ccccc12,6.82,6.83,,,,
O=C(NCc1ccccc1)Nc1nc2ccccc2c2cn(-c3ccccc3)nc12,8.08,6.73,5%,,,
COc1ccc(-n2cc3c(n2)c(N)nc2ccccc23)cc1,7.04,6.62,,,,
c1ccc(CNc2nc3ccccc3c3cn(-c4ccccc4)nc23)cc1,7.45,6.88,,5.27,,
O=C(Nc1ccccc1)Nc1nc2ccccc2c2cn(-c3ccccc3)nc12,6.97,5.82,32%,,,
O=C(Nc1nc2ccccc2c2cn(-c3ccccc3)nc12)c1ccccc1,8.68,,,,42%,
Cn1c(=O)c2nn(-c3ccccc3)cc2c2ccccc21,6.93,5.91,,,,
Nc1nc2ccccc2c2cn(-c3ccc(Cl)cc3)nc12,6.82,,,,,
Fc1cccc(-n2cc3c(n2)c(NC2CCCC2)nc2ccccc23)c1,,8.03,,5.66,,34%
COc1ccc(-n2cc3c(n2)c(=O)[nH]c2ccccc23)cc1,8.49,5.97,18%,,,
c1ccc(-n2cc3c(n2)c(NC2CCCCC2)nc2ccccc23)cc1,6.15,8.07,,,,
Cc1cccc(-n2cc3c(n2)c(NC2CCCC2)nc2ccccc23)c1,7.65,7.39,,,,
c1ccc(-n2cc3c(n2)c(NC2CCCC2)nc2ccccc23)cc1,7.22,8.49,,6.07,,
Cc1ccccc1-n1cc2c(n1)c(N)nc1ccccc12,5.44,6.28,,5.80,,
Cc1ccccc1-n1cc2c(n1)c(=O)[nH]c1ccccc12,7.10,5.49,,,,
Cc1ccccc1-n1cc2c(n1)c(O)nc1ccccc12,,,0%,,,
Oc1nc2ccccc2c2cn(-c3ccc(Cl)cc3)nc12,,,35%,,,
Oc1nc2ccc(Cl)cc2c2cn(-c3ccccc3)nc12,,,52%,,,
CC(=O)Nc1nc2ccccc2c2cn(-c3ccccc3)nc12,7.32,7.12,,,,

Compound,pKi [1],pKi [2],inhibition [3],pKi [4],inhibition [5],inhibition [6]
Clc1ccc2nc(NC3CCCCC3)c3nn(-c4ccccc4)cc3c2c1,5.67,7.57,,5.38,,
Cc1cccc(-n2cc3c(n2)c(N)nc2ccccc23)c1,7.00,6.89,,5.43,,
Clc1ccc(-n2cc3c(n2)c(NC2CCCCC2)nc2ccccc23)cc1,7.25,6.32,8%,,,
O=c1[nH]c2ccc(Cl)cc2c2cn(-c3ccccc3)nc12,7.36,6.55,,,,
Cc1ccc(-n2cc3c(n2)c(=O)[nH]c2ccccc23)cc1,8.49,5.41,,,,
c1ccc(CCNc2nc3ccccc3c3cn(-c4ccccc4)nc23)cc1,7.48,7.22,,,,
Cc1cccc(-n2cc3c(n2)c(=O)[nH]c2ccccc23)c1,8.30,6.08,17%,,,
Cc1cccc(-n2cc3c(n2)c(NC2CCCCC2)nc2ccccc23)c1,7.36,7.65,,4.94,,
CCCn1c(=O)c2nn(-c3ccccc3)cc2c2ccccc21,7.16,6.02,,,,
Nc1nc2ccccc2c2cn(-c3cccc(F)c3)nc12,6.10,6.96,,,,
Oc1nc2ccccc2c2cn(-c3cccc(F)c3)nc12,7.34,6.23,0%,,,
Nc1nc2ccccc2c2cn(-c3ccccc3)nc12,6.26,7.16,,,,
Cc1ccc(-n2cc3c(n2)c(N)nc2ccccc23)cc1,6.73,6.67,,,,
Cc1ccc(-n2cc3c(n2)c(NC2CCCCC2)nc2ccccc23)cc1,6.94,7.14,,,,
Nc1nc2ccc(Cl)cc2c2cn(-c3ccccc3)nc12,6.51,7.06,,5.24,,
Fc1cccc(-n2cc3c(n2)c(NC2CCCCC2)nc2ccccc23)c1,6.81,7.26,,,,
O=c1[nH]c2ccccc2c2cn(-c3ccc(Cl)cc3)nc12,8.54,6.33,,,,
O=C(Cc1ccccc1)Nc1nc2ccccc2c2cn(-c3ccccc3)nc12,8.00,6.97,,,,
O=c1[nH]c2ccccc2c2cn(-c3ccccc3)nc12,7.51,,,,,
